Assays:
Format in all cases: biochemical, influenza A(H7N2) virus
[1] = tested on: NA enzymatic activity of A/feline/NY/16
[2] = tested on: NA enzymatic activity of A/chicken/NY/99
NA of the H7N2 viruses = tested on: NA of the H7N2 viruses

CCOC(=O)C1=C[C@@H](OC(CC)CC)[C@H](NC(C)=O)[C@@H](N)C1 [oseltamivir]
Sensitivity to NA inhibitors (50% inhibitory concentration (IC50) of the NA enzymatic activity) [1]: sensitive | Sensitivity to NA inhibitors (50% inhibitory concentration (IC50) of the NA enzymatic activity) [2]: sensitive | Susceptibility of the H7N2 viruses to NA inhibitors (NA of the H7N2 viruses): susceptible

[H]/N=C(\N)N[C@H]1C=C(C(=O)O)O[C@@H]([C@H](OC)[C@H](O)CO)[C@@H]1NC(C)=O [laninamivir]
Sensitivity to NA inhibitors (50% inhibitory concentration (IC50) of the NA enzymatic activity) [1]: sensitive | Sensitivity to NA inhibitors (50% inhibitory concentration (IC50) of the NA enzymatic activity) [2]: sensitive | Susceptibility of the H7N2 viruses to NA inhibitors (NA of the H7N2 viruses): susceptible

CCC(CC)[C@H](NC(C)=O)[C@@H]1[C@H](O)[C@@H](C(=O)O)C[C@H]1N=C(N)N [peramivir]
Susceptibility of the H7N2 viruses to NA inhibitors (NA of the H7N2 viruses): susceptible

CC(=O)N[C@H]1[C@H]([C@H](O)[C@H](O)CO)OC(C(=O)O)=C[C@@H]1N=C(N)N [zanamivir]
Sensitivity to NA inhibitors (50% inhibitory concentration (IC50) of the NA enzymatic activity) [1]: sensitive | Sensitivity to NA inhibitors (50% inhibitory concentration (IC50) of the NA enzymatic activity) [2]: sensitive | Susceptibility of the H7N2 viruses to NA inhibitors (NA of the H7N2 viruses): susceptible

From US20180303928A1 (priority 2017, published 2018)
